Data on 29 compounds can be found in patent EP2664616A1, “Hydantoin and thiohydantoin derivatives as antiviral drugs” (priority 2012, dated 2013).

Usually EC50 stands for the concentration at which the effect is half-maximal.

One experiment relates to HCV replicon Luc Neo ET. As to the kind of experiment: HCV replication inhibition assay (replicon assay, luciferase reporter). It counts as cell-based. The following applies: Hepatitis C virus; Huh-7 cell lines containing HCV replicon Luc Neo ET; 72 hours with compound; 1 % DMSO; firefly luciferase reporter; concentration that produces 50 % of replication inhibition; read-out: EC50 Replicon LucneoET. On the procedure: The compounds according to the present invention were tested for their ability to inhibit HCV replication as follows:
Huh-7 cell lines containing HCV replicon Luc Neo ET (Reblikon) were maintained in DMEM supplemented with 10% SVF, 2 mM glutamine, and 1 X NEAA, 100 U / ml penicillin, and 100 µg / ml streptomycine. Cells were maintained in medium supplemented with 0.5 mg/ml G418, at 37°C and 5% CO2 in a humidified atmosphere. Cells were dissociated at sub confluence with trypsin EDTA 1X.
Replicon Luc Neo ET is bicistronic expression constructs (Lohmann et al, 1999, Science 285, 110-113). In brief, the structural genes of the HCV genome were replaced by heterologous sequences; the gene encoding the neomycin phosphotransferase (NPT) and the internal ribosome entry site (IRES) of the encephalomyocarditis virus (EMCV). The bicistronic construct is therefore composed of the following elements: HCV-IRES nucleotides 1-389 for Luc Neo ET, the NPT gene, the EMCV-IRES directing translation of downstream HCV sequences from NS2 or NS3 up to the authentic 3' end of the genome. HCV Polyprotein of Luc Neo ET replicon harbours the cell culture adaptive mutations E1202G, T1280I, K1846T. G418-resistance is only possible with cells containing high amounts of replicon.
Cells were dissociated the day before addition of compounds and seeded in 96 well-plates at a final concentration of 27 777.77 cells.ml^-1.cm^-2 in 90µl final volume of culture medium per well and were maintained at 37°C and 5% CO2 in a humidified atmosphere for 24 hours. 10 µl of compounds to be tested were added 24 hours after seeding. Final concentration of DMSO was 1 %. Cells were incubated in the presence of compounds for 72 hours after which expression of firefly luciferase reporter gene was quantified. Briefly, culture medium was removed and cells were lysed by addition of 100 µl of lysis buffer containing 125 mM Tris Phosphate ph 7.8, 10 mM EDTA, 5 mM DTT, 50 % glycerol and 5 % Triton. Plates were vortexed 10 min at 1300 rpm. 100µl of luciferin solution 1X were added to each well. Luciferin solution contained 40 mM Tris Phosphate ph 7.8, 0.2 mM EDTA, 67 mM DTT, 2.14 mM MgCl2, 5.4 mM MgSO4, 4.7 x 10^-4 M luciferin, 5.3 x 10^-4 M ATP and 2.7 x 10^-4 M Acetyl co enzyme A. Luminescence was immediately measured with Berthold Microlumat Plus LB 96V luminometer with an integration of 1 sec. Inhibition was calculated using the formula: % inhibition = 1-[(RLUsample-RLUbackground)/(RLUsignal-RLUbackground)].
The Table 1 below illustrates data on the biological activity of compounds of the present invention. Results are expressed as EC50 which is the concentration that produces 50 % of replication inhibition. Table 1. HCV replication inhibition assay
For `COc1ccc(CCN2C(=S)N(c3ccccc3)C(=O)C2CC(=O)Nc2ccc(OC)nn2)cc1` (centres unmarked) [Example 69, 2-{3-[2-(4-methoxyphenyl)ethyl]-5-oxo-1-phenyl-2-sulfanylideneimidazolidin-4-yl}-N-(6-methoxypyridazin-3-yl)acetamide], the EC50 was less than 5 µM.

Take `COc1ccc(CCN2C(=O)N(c3ccc(F)cc3)C(=O)C2CC(=O)Nc2ccc(C)nn2)cc1` (centres unmarked) [Example 74, 2-[1-(4-fluorophenyl)-3-[2-(4-methoxyphenyl)ethyl]-2,5-dioxoimidazolidin-4-yl]-N-(6-methylpyridazin-3-yl)acetamide]: the EC50 is less than 30 µM.

Take `COc1ccc(CCN2C(=S)N(c3ccccc3)C(=O)/C2=C\C(=O)Nc2ccc(N(C)C)cc2)cc1` [Example 90, N-[4-(dimethylamino)phenyl]-2-[(4E)-3-[2-(4-methoxyphenyl)ethyl]-5-oxo-1-phenyl-2-sulfanylideneimidazolidin-4-ylidene]acetamide]: the concentration for a half-maximal effect (EC50) is less than 0.5 µM.

In the case of `COc1ccc(CCN2C(=S)N(c3ccc(F)cc3)C(=O)C2CC(=O)Nc2ccc(OC)cn2)cc1` (centres unmarked) [Example 83, 2-[1-(4-fluorophenyl)-3-[2-(4-methoxyphenyl)ethyl]-5-oxo-2-sulfanylideneimidazolidin-4-yl]-N-(5-methoxypyridin-2-yl)acetamide], the EC50 was less than 0.5 µM.

Consider `COc1ccc(NC(=O)CC2C(=O)N(c3ccccc3)C(=S)N2CCc2ccc(Cl)cc2)nc1` (centres unmarked) [Example 61, 2-{3-[2-(4-chlorophenyl)ethyl]-5-oxo-1-phenyl-2-sulfanylideneimidazolidin-4-yl}-N-(5-methoxypyridin-2-yl)acetamide], for which the EC50 was less than 0.5 µM.

As to `COc1ccc(CCN2C(=O)N(c3ccc(F)cc3)C(=O)C2CC(=O)Nc2ccc(N(C)C)cc2)cc1` (centres unmarked) [Example 42, N-[4-(dimethylamino)phenyl]-2-[1-(4-fluorophenyl)-3-[2-(4-methoxyphenyl)ethyl]-2,5-dioxoimidazolidin-4-yl]acetamide], the concentration for a half-maximal effect (EC50) is less than 5 µM.

Regarding `COc1ccc(CCN2C(=O)N(c3ccc(F)cc3)C(=O)C2CC(=O)Nc2ccc(N(C)C)cn2)cc1` (centres unmarked) [Example 73, N-[5-(dimethylamino)pyridin-2-yl]-2-[1-(4-fluorophenyl)-3-[2-(4-methoxyphenyl)ethyl]-2,5-dioxoimidazolidin-4-yl]acetamide], the concentration giving a half-maximal response (EC50) is less than 0.5 µM.

As to `COc1ccc(CCN2C(=S)N(c3ccc(F)cc3)C(=O)C2CC(=O)Nc2ccc(OC)cc2F)cc1` (centres unmarked) [Example 85, N-(2-fluoro-4-methoxyphenyl)-2-[1-(4-fluorophenyl)-3-[2-(4-methoxyphenyl)ethyl]-5-oxo-2-sulfanylideneimidazolidin-4-yl]acetamide], the EC50 was less than 0.5 µM.

For `COc1ccc(NC(=O)CC2C(=O)N(c3ccc(F)cc3)C(=S)N2CCc2ccc(N(C)C)cc2)cc1` (centres unmarked) [Example 47, 2-(3-{2-[4-(dimethylamino)phenyl]ethyl}-1-(4-fluorophenyl)-5-oxo-2-sulfanylideneimidazolidin-4-yl)-N-(4-methoxyphenyl)acetamide], the half-maximal effective concentration (EC50) is less than 0.5 µM.

`COc1ccc(NC(=O)CC2C(=O)N(c3ccc(F)cc3)C(=S)N2CCc2cccs2)cc1` (centres unmarked) [Example 46, 2-[1-(4-fluorophenyl)-5-oxo-2-sulfanylidene-3-[2-(thiophen-2-yl)ethyl]imidazolidin-4-yl]-N-(4-methoxyphenyl)acetamide]: the concentration giving a half-maximal response (EC50) is less than 0.5 µM.

Take `CN(C)c1ccc(NC(=O)CC2C(=O)N(c3ccc(F)cc3)C(=S)N2CCc2cccs2)cc1` (centres unmarked) [Example 48, N-[4-(dimethylamino)phenyl]-2-[1-(4-fluorophenyl)-5-oxo-2-sulfanylidene-3-[2-(thiophen-2-yl)ethyl]imidazolidin-4-yl]acetamide]: the EC50 was less than 0.5 µM.

For `COCCOc1ccc(NC(=O)CC2C(=O)N(c3ccc(F)cc3)C(=S)N2CCc2ccc(OC)cc2)cc1` (centres unmarked) [Example 53, 2-[1-(4-fluorophenyl)-3-[2-(4-methoxyphenyl)ethyl]-5-oxo-2-sulfanylideneimidazolidin-4-yl]-N-[4-(2-methoxyethoxy)phenyl]acetamide], the EC50 was less than 0.5 µM.

For the compound `COc1ccc(NC(=O)CC2C(=O)N(c3ccc(F)cc3)C(=S)N2CCc2ccc(N3CCOCC3)cc2)cc1` (centres unmarked) [Example 52, 2-[1-(4-fluorophenyl)-3-{2-[4-(morpholin-4-yl)phenyl]ethyl}-5-oxo-2-sulfanylideneimidazolidin-4-yl]-N-(4-methoxyphenyl)acetamide], the EC50 was less than 0.5 µM.

As for `Cc1ccc(NC(=O)CC2C(=O)N(c3ccccc3)C(=S)N2CCc2ccc(Cl)cc2)cc1` (centres unmarked) [Example 37, 2-{3-[2-(4-chlorophenyl)ethyl]-5-oxo-1-phenyl-2-sulfanylideneimidazolidin-4-yl}-N-(4-methylphenyl)acetamide], the EC50 was less than 5 µM.

For the compound `COc1ccc(CCN2C(=S)N(c3ccncc3)C(=O)C2CC(=O)Nc2ccc(OC)cc2)cc1` (centres unmarked) [Example 55, N-(4-methoxyphenyl)-2-{3-[2-(4-methoxyphenyl)ethyl]-5-oxo-1-(pyridin-4-yl)-2-sulfanylideneimidazolidin-4-yl}acetamide], the EC50 was less than 5 µM.

As to `COc1ccc(CCN2C(=S)N(c3ccc(F)cc3)C(=O)C2CC(=O)Nc2cnc(OC)nc2)cc1` (centres unmarked) [Example 82, 2-[1-(4-fluorophenyl)-3-[2-(4-methoxyphenyl)ethyl]-5-oxo-2-sulfanylideneimidazolidin-4-yl]-N-(2-methoxypyrimidin-5-yl)acetamide], the EC50 was less than 5 µM.

As for `COc1ncc(NC(=O)CC2C(=O)N(c3ccc(F)cc3)C(=O)N2CCc2ccc(N(C)C)cc2)cn1` (centres unmarked) [Example 78, 2-(3-{2-[4-(dimethylamino)phenyl]ethyl}-1-(4-fluorophenyl)-2,5-dioxoimidazolidin-4-yl)-N-(2-methoxypyrimidin-5-yl)acetamide], the concentration giving a half-maximal response (EC50) was less than 30 µM.

Still in this experiment, the particulars now being: Huh-7 cell lines containing HCV replicon Luc Neo ET; 72 hours with compound; 1 % DMSO; firefly luciferase reporter; concentration that produces 50 % of replication inhibition.
As to `COc1ccc(/C=C\N2C(=S)N(c3ccc(F)cc3)C(=O)C2CC(=O)Nc2ccc(OC)cn2)cc1` (centres unmarked) [Example 89, 2-[1-(4-Fluorophenyl)-3-[(Z)-2-(4-methoxyphenyl)ethenyl]-5-oxo-2-sulfanylideneimidazolidin-4-yl]-N-(5-methoxypyridin-2-yl)acetamide], the “EC50 Replicon LucneoET” value is given as “Non Active”.

The same experiment, now with this note: Huh-7 cell lines containing HCV replicon Luc Neo ET; 72 hours with compound; 1 % DMSO; firefly luciferase reporter; concentration that produces 50 % of replication inhibition; read-out: EC50 Replicon LucneoET.
With `CCOc1ccc(NC(=O)CC2C(=O)N(c3cccc(C(F)(F)F)c3)C(=S)N2CCc2ccccc2F)cc1` (centres unmarked) [Example 19], the half-maximal effective concentration (EC50) is less than 5 µM.

As for `O=C(CC1C(=O)N(c2ccc(Cl)cc2)C(=S)N1CCc1ccc(Cl)cc1)Nc1ccc(F)cc1` (centres unmarked) [Example 20], the EC50 is less than 30 µM.

As for `CCCOc1ccc(NC(=O)CC2C(=O)N(c3ccccc3)C(=S)N2CCc2ccc(Cl)cc2)cc1` (centres unmarked) [Example 2], the EC50 was less than 0.5 µM.

`COc1ccc(NC(=O)CC2C(=O)N(c3ccccc3)C(=S)N2CCc2ccc(OC)c(OC)c2)cc1` (centres unmarked) [Example 4]: the EC50 was less than 5 µM.

In the case of `COc1ccc(NC(=O)CC2C(=O)N(c3ccc(F)cc3)C(=S)N2CCCN2CCN(Cc3ccccc3)CC2)cc1` (centres unmarked) [Example 13], the EC50 was less than 0.5 µM.

For `O=C(CC1C(=O)N(c2ccccc2)C(=S)N1CCc1ccc(Cl)cc1)Nc1ccc(Cl)cc1` (centres unmarked) [Example 24], the EC50 was less than 5 µM.

In the case of `CCOc1cccc(NC(=O)CC2C(=O)N(c3ccccc3)C(=S)N2CCc2ccc(F)cc2)c1` (centres unmarked) [Example 18], the EC50 is less than 5 µM.

`COc1ccc(NC(=O)CC2C(=O)N(Cc3ccccc3)C(=S)N2CCc2ccc(Cl)cc2)cc1` (centres unmarked) [Example 32]: the EC50 was less than 30 µM.

With “2-{3-[2-(4-chlorophenyl)ethyl]-4-hydroxy-5-oxo-1-phenyl-2-sulfanylideneimidazolidin-4-yl}-N-[4-(dimethylamino)phenyl]acetamide [Example 63]”, the EC50 was less than 0.5 µM.

As to `O=C(CC1C(=O)N(c2ccccc2)C(=S)N1CCc1ccccc1)Nc1ccc(Cl)cc1` (centres unmarked) [Example 22], the EC50 was less than 5 µM.

On to `COc1ccc(NC(=O)CC2C(=O)N(c3ccc(F)cc3)C(=O)N2CCc2cccs2)cc1` (centres unmarked) [Example 16], for which the EC50 is less than 5 µM.
